According to patent US9034863B2, “Compositions and methods for inhibiting entry of a hepatic virus” (The Board of Trustees of the University of Illinois, priority 2008, dated 2015):

Tests used:
[1] = test system: intergenotypic HCVcc chimeras; assay: Cell-to-cell spread of intergenotypic HCVcc chimeras in non-growing Huh7-1 cells; assay type: cell-based, Hepatitis C virus (HCV)
From the text: To determine if ezetimibe might be an effective therapeutic for inhibiting HCV spread of other HCV genotypes, intergenotypic HCVcc chimeras were used, in which the core through E2 region of the JFH-1 clone had been replaced with analogous regions of various HCV genotypes including H77C, J4, J8, ED43, SA13, HK6A and QC69 (Gottwein, et al. (2009) Hepatology 49(2):364-77). Again, to avoid issues of cell division, non-growing Huh7-1 cells were infected with the different chimeric viruses, and after 16 hours, the cells were washed and 0 μM or 30 μM ezetimibe was added to parallel cultures. Since the chimeras encode unique E2 proteins and thus may have differing sensitivity to inhibition by the anti-E2 antibody, in this experiment methyl cellulose was added to all cultures as an alternative means of minimizing cell-free virus spread. Seventy-two hours post-infection, the cells were fixed and stained with an antibody to HCV NS5A to detect the size of the foci formed. In all cases, the size of foci formed by each chimera were reduced in the presence of ezetimibe relative to the mock-treated control culture confirming not only that all of these genotypes use the NPC1L1 receptor for cell-to-cell spread, but that the spread of all the chimeric viruses can be inhibited by ezetimibe.
To determine if naringenin affects spread of any of the other HCV genotypes, non-growing Huh7-1 cells were infected with the different intergenic chimeric viruses and after 16 hours, the cells were washed and naringenin was added. Methyl cellulose was added to each well to prevent cell-free virus spread. In parallel, a control set of wells was treated with methyl cellulose alone. Five days post-infection, the cells were fixed and stained to detect the number of HCV NS5A-positive cells.

HCVcc = assay: HCV cell-to-cell spread, foci-size assay with cell-free spread blocked by anti-E2 antibody; assay type: cell-based, Hepatitis C virus (HCV)
Description: Using an established antibody blocking approach (Timpe, et al. (2008) Hepatology 47:17-24), in which an antibody to the HCV E2 glycoprotein is used to block cell-free virus spread, the role of NPC1L1, CD81, or claudin-1 in cell-to-cell spread was tested. Briefly, subconfluent Huh7 cells were inoculated with HCVcc at a low multiplicity of infection (MOI) of 0.01 ffu/cell for 15 hours to allow sufficient time for initial viral entry into the primary cells (Sabahi, et al. (2010) Virology 407:110-9). Cells were then washed and cell-free virus spread was blocked by addition of an anti-E2 antibody at a concentration which neutralizes extracellular virus infection of cells. In parallel, cultures were co-treated with antibodies to CD81, Claudin-1 or NPC1L1 to determine if blocking of these factors prevents cell-to-cell spread. At seventy two hours post-infection, monolayers were fixed and stained for HCV-positive foci. Spread was determined by the size of the foci, as quantified by the number of cells per foci. Foci composed of 1-2 HCV E2-positive cells, which could have formed via cell division, were scored as infections that had not spread cell-to-cell, and are referred to as one-two cell foci, and represent a baseline for the assay. Foci containing […] cells were scored as infections that had successfully spread cell-to-cell, and are referred to as multicellular foci.
To confirm the role of NPC1L1 in HCV spread and verify that ezetimibe inhibits HCV cell-to-cell spread, Huh7-1 cells were inoculated with HCV JFH-1 at an MOI of 0.01 for 16 hours to allow cell-free entry to initiate infection in a small percentage of cells, before being washed and then incubated with increasing concentrations of ezetimibe. Once again extracellular HCV entry was blocked by the addition of anti-E2 antibody to neutralize cell-free virus in all cultures. […] Cells were fixed at 72 hours post-infection, and then stained to detect the number and the size of the E2-positive foci. The foci were counted and scored as one-two cell foci or as multicellular foci. […] To ensure that multicellular foci were not a result of cell division over the time course of the experiment, the same experiment was repeated in non-growing Huh7-1 cells and similar results were obtained.
Because HCV cell-free spread requires the production and secretion of infectious viral particles from infected cells, an alternative way to block cell-free virus spread is to prevent the release of infectious virus from already infected cells. […] It was of interest to determine whether the VLDL secretory pathway and related virion lipid modifications are required for cell-to-cell spread. […]

O=C1[C@H](CC[C@H](O)c2ccc(F)cc2)[C@@H](c2ccc(O)cc2)N1c1ccc(F)cc1 [ezetimibe, 1-(4-fluorophenyl)-(3R)-[3-(4-fluorophenyl)-(3S)-hydroxypropyl]-(45)-(4-hydroxyphenyl)-2-azetidinone]
size of foci formed by each chimera ([1]; 30 μM, methyl cellulose, 72 hours post-infection, relative to mock-treated): reduced | size of foci (HCVcc; 30 μM added post-viral inoculation): foci of 1-2 cells | number of independent infection initiation events (foci of 1-2 E2-positive cells) (HCVcc; added post-infection, 24 hours post-infection): did not block infection | size of the E2-positive foci formed (HCVcc; increasing concentrations added post-inoculation, 72 hours post-infection): dose-dependent inhibition

O=C1C[C@@H](c2ccc(O)cc2)Oc2cc(O)cc(O)c21 [naringenin]
size of foci, J8/JFH-1 (2B/JFH-1) chimera ([1]; J8/JFH-1 chimera): reduced the size of foci | cell-to-cell spread of chimeric viruses ([1]; all chimeric viruses except J8/JFH-1, five days post-infection): not inhibited | HCV cell-to-cell spread (number and size of foci) (HCVcc; non-growing Huh7-1 cells, five days post-infection, vs vehicle): inhibition of cell-to-cell spread was not detected
